Patent US10106551B2, “Monothiol mucolytic agents” (PARION SCIENCES, INC., priority 2015, dated 2018)
Structures can show the parent of a compound that is named as a salt. Values belong to the compound of their own block, whether it stands above or below them.

Experiments:
Assay type in all cases: biochemical
[1] = DTNB assay: rate of S-S bond reduction; conditions: pH 6; 22.5 μM reducing agent, 45 μM DTNB, 50 mM Tris-HCl
Source text: Thiol-containing compounds, such as the monothiol mucolytic agents described in this patent, can react with DTNB (5,5-Dithiobis(2-nitrobenzoic acid)) resulting in the cleavage of its single S—S bond. The DTNB assay serves a dual purpose in our analysis of monothiol compounds, as it can (1) be used to determine the “active concentration” of the mucolytic compounds (what amount of the compound in a reaction is able to cleave S—S bonds) and (2) to assess the rate that the compound can cleave S—S bonds. When cleaved, the resulting compound, NTB (2-nitro-5-thiobenzoate), is a colored product that is measured spectrophotometrically at an absorbance of 412 nm (Abs412). Using the molar extinction coefficient of NTB and measured maximum Abs412, the molar amount of DTNB that reacted with our mucolytic agents can be calculated. Monothiol mucolytic compounds react at a 1:1 stoichiometric ratio with DTNB (i.e. 1 mole of NTB is produced when 1 mole of DTNB is reacted with 1 mole of a monothiol reducing agent). To define the activity concentration of a compound, a final concentration of 22.5 μM mucolytic reducing agent was combined with an excess of DTNB (100 μM) in 1 mL 50 mM Tris-HCl buffer (pH 7.5). Maximum Abs412 was measured and then utilized to calculate the activity concentration. If observed activity concentrations differed from expected activity concentrations by more than 5%, the amount of the compound added to each reaction was accordingly adjusted to kinetically test the reducing rate in the next step. To determine rate of mucolytic reducing activity, 22.5 μM active reducing agent is combined with 45 μM DTNB in 1 mL 50 mM Tris-HCl buffer over a pH range (6.0-7.5). Abs412 is recorded in real time upon addition of the compound and rates were calculated using 2nd order kinetic parameters.

[2] = Pro-Drug DTNB assay with or without esterase; conditions: for Reduction Without Esterase / Reduction With Esterase: 22.5 μM prodrug, 100 μM DTNB; for Reduction Without Esterase: pH 7.5, no enzyme; for Reduction With Esterase: pH 7.5, porcine liver esterase
Experimental: The present invention provides a series of mucolytic pro-drugs (see R^6=other than H) that are activated by common enzymes that are present in the extracellular milieu (e.g., nucelotidases, phosphatases, and esterases). As a proof-of-concept, the reducing kinetics of the pro-drug compound 46 in the presence or absence of an activating esterase were tested.
This assay was designed to determine whether prodrug caps added on to our monothiol mucolytic compounds can be cleaved from the molecule. If so, the outcome would be an “active” compound that is able to reduce the S—S bond in DTNB. Similar to the activity concentration version of the DTNB assay described above, monothiol prodrugs were mixed at a final concentration of 22.5 μM with excess DTNB (100 μM final) in 1 mL 50 mM Tris-HCl buffer (pH 7.5) and maximum Abs412 was measured. In the absence of a purified hydrolytic enzyme (e.g. porcine liver esterase; Sigma), the amount of DTNB cleavage observed is an indicator for stability of the cap on the prodrug compound (i.e. if the prodrug remains intact in solution the Abs412=0). Next, 5 uL of esterase (bought as an ammonium sulfate suspension that is subsequently centrifuged to isolate the esterase and then dissolved in reaction buffer prior to assaying) is combined with excess DTNB (100 μM final) and 22.5 μM pro-drug in 1 mL 50 mM Tris-HCl buffer (pH 7.5). Cleavage of the prodrug cap can be visualized in real time via DTNB cleavage at Abs412 by the esterase-liberated monothiol molecule.

[3] = target: T1, Muc5B (Homo sapiens, UniProt Q9HC84); test: Mucin agarose gel western blot (saliva / mucus samples); conditions: for MUC5B reduction: human mucus samples
T1 construct: Various mucin-containing substrates (e.g. saliva, harvested HBE mucus, and disease sputum) treated with our monothiol mucolytic compounds; from tissue; host or cells: saliva; harvested HBE mucus; disease sputum
Experimental: Various mucin-containing substrates (e.g. saliva, harvested HBE mucus, and disease sputum) treated with our monothiol mucolytic compounds are quenched upon completion of the treatment period with a 10-fold excess of N-ethylmaleimide in order to alkylate any remaining active compound and to prevent further mucin reduction. A 10× concentrated sample loading buffer is diluted into each sample (1×TAE/5% glycerol/0.1% SDS/Bromophenol Blue). Samples ([…]) were analyzed by electrophoresis on 0.9% agarose gels using a buffer system consisting of 1×TAE/0.1% SDS. The agarose gel was soaked for 15 min in 4×SSC (0.6 M NaCl, 60 mM Tri-sodium citrate dehydrate) containing 10 mM DTT before transferring the samples from the gel onto a nitrocellulose membrane by vacuum blotter. Unreduced and reduced Muc5B were visualized on a LiCor Odyssey imaging detection system using a polyclonal antibody directed towards Muc5B.

SMILES: Cl.OC[C@@H](O)[C@@H](O)[C@H](O)[C@@H](O)CN(CCOc1cccc(CS)c1)C[C@H](O)[C@@H](O)[C@H](O)[C@H](O)CO [Compound 19, (2R,2′R,3R,3′R,4R,4′R,5S,5′S)-6,6′-((2-(3-(mercaptomethyl)phenoxy)ethyl)azanediyl)bis(hexane-1,2,3,4,5-pentaol) Hydrochloride]
- DTNB reduction rate [1]: 182.52 M⁻¹ s⁻¹

SMILES: Cl.O=C(SCc1cccc(OCCN(C[C@@H](O)[C@@H](O)[C@H](O)[C@H](O)CO)C[C@@H](O)[C@@H](O)[C@H](O)[C@H](O)CO)c1)c1ccco1 [Compound 10, S-3-(2-(bis((2R,3R,4R,5R)-2,3,4,5,6-pentahydroxyhexyl)amino)ethoxy)benzylfuran-2-carbothioate Hydrochloride]
- Reduction Without Esterase [2]: No
- Reduction With Esterase [2]: Yes

SMILES: CC(C)C(=O)SCc1cccc(OCCN(C[C@H](O)[C@@H](O)[C@H](O)[C@H](O)CO)C[C@H](O)[C@@H](O)[C@H](O)[C@H](O)CO)c1 [Compound 14, S-3-(2-(bis((2S,3R,4R,5R)-2,3,4,5,6-entahydroxyhexyl)amino)ethoxy)benzyl 2-methylpropanethioate Hydrochloride]
- Reduction Without Esterase [2]: No
- Reduction With Esterase [2]: Yes

SMILES: NCCCCCCOc1ccc(CS)cc1 [Compound 48]
- DTNB reduction rate [1]: 190.8 M⁻¹ s⁻¹

SMILES: Cl.OC[C@@H](O)[C@@H](O)[C@H](O)[C@H](O)CN(CCOc1cccc(CS)c1)C[C@@H](O)[C@@H](O)[C@H](O)[C@H](O)CO [Compound 20, (2R,2′R,3R,3′R,4R,4′R,5R,5′R)-6,6′-((2-(3-(mercaptomethyl)phenoxy)ethyl)azanediyl)bis(hexane-1,2,3,4,5-pentaol) Hydrochloride]
- DTNB reduction rate [1]: 307.08 M⁻¹ s⁻¹

SMILES: Cl.OC[C@@H](O)[C@@H](O)[C@H](O)[C@H](O)CN(CCOc1ccc(CS)cc1)C[C@@H](O)[C@@H](O)[C@H](O)[C@H](O)CO [Compound 58, (2R,2′R,3R,3′R,4R,4′R,5R,5′R)-6,6′-((2-(4-(mercaptomethyl)phenoxy)ethyl)azanediyl)bis(hexane-1,2,3,4,5-pentaol) Hydrochloride]
- DTNB reduction rate [1]: 258.31 M⁻¹ s⁻¹

SMILES: CC(C)C(=O)SCc1cccc(OCCN(C[C@@H](O)[C@@H](O)[C@H](O)[C@H](O)CO)C[C@@H](O)[C@@H](O)[C@H](O)[C@H](O)CO)c1.Cl [Compound 15a, S-3-(2-(bis((2R,3R,4R,5R)-2,3,4,5,6-pentahydroxyhexyl)amino)ethoxy)benzyl 2-methylpropanethioate Hydrochloride]
- Reduction Without Esterase [2]: No
- Reduction With Esterase [2]: Yes

SMILES: Cl.O=C(SCc1cccc(OCCN(C[C@H](O)[C@@H](O)[C@H](O)[C@H](O)CO)C[C@H](O)[C@@H](O)[C@H](O)[C@H](O)CO)c1)c1ccco1 [Compound 9, S-3-(2-(bis((2S,3R,4R,5R)-2,3,4,5,6-pentahydroxyhexyl)amino)ethoxy)benzyl furan-2-carbothioate Hydrochloride]
- Reduction Without Esterase [2]: No
- Reduction With Esterase [2]: Yes

Further lines, with some results ahead:

- Reduction Without Esterase [2]: No
- Reduction With Esterase [2]: Yes
SMILES: CC(=O)SCc1cccc(OCCN(C[C@@H](O)[C@@H](O)[C@H](O)[C@H](O)CO)C[C@@H](O)[C@@H](O)[C@H](O)[C@H](O)CO)c1 [Compound 18, S-3-(2-(bis((2R,3R,4R,5R)-2,3,4,5,6-pentahydroxyhexyl)amino)ethoxy)benzyl Ethanethioate]

- Reduction Without Esterase [2]: No
- Reduction With Esterase [2]: Yes
SMILES: CCC(=O)SCc1cccc(OCCN(C[C@@H](O)[C@@H](O)[C@H](O)[C@H](O)CO)C[C@@H](O)[C@@H](O)[C@H](O)[C@H](O)CO)c1.Cl [Compound 25, S-3-(2-(bis((2R,3R,4R,5R)-2,3,4,5,6-pentahydroxyhexyl)amino)ethoxy)benzyl Propanethioate Hydrochloride]

- Muc5b reduction ([3]; FIG. 4, 30 mM): partial Muc5b reduction
SMILES: CO[C@@H]1OC(CS)[C@H](O)C(O)C1O (some centres unmarked) [compound 95, reference compound]

- Reduction Without Esterase [2]: No
- Reduction With Esterase [2]: Yes
SMILES: CC(C)C(=O)SCc1ccc(OCCN(C[C@@H](O)[C@@H](O)[C@H](O)[C@H](O)CO)C[C@@H](O)[C@@H](O)[C@H](O)[C@H](O)CO)cc1.Cl [Compound 59, S-4-(2-(bis((2R,3R,4R,5R)-2,3,4,5,6-pentahydroxyhexyl)amino)ethoxy)benzyl 2-methylpropanethioate Hydrochloride]

- Reduction Without Esterase [2]: No
- Reduction With Esterase [2]: Yes
SMILES: CCC(=O)SCc1cccc(OCCN(C[C@H](O)[C@@H](O)[C@H](O)[C@H](O)CO)C[C@H](O)[C@@H](O)[C@H](O)[C@H](O)CO)c1.Cl [Compound 24, S-3-(2-(bis((2S,3R,4R,5R)-2,3,4,5,6-pentahydroxyhexyl)amino)ethoxy)benzyl Propanethioate Hydrochloride]

- reducing capacity relative to 76 (Muc5B) ([3]; FIG. 3): retain the reducing capacity of 76
- MUC5B reduction [3]: reduce MUC5B
- time to fully reduce all available disulfides ([2]; parent molecule, same conditions as pro-drug test): < 10 s
SMILES: Cl.OC[C@@H](O)[C@@H](O)[C@H](O)[C@@H](O)CN(CCCCCCOc1ccc(CS)cc1)C[C@H](O)[C@@H](O)[C@H](O)[C@H](O)CO [Compound 47, (2R,2′R,3R,3′R,4R,4′R,5S,5′S)-6,6′-((6-(4-(mercaptomethyl)phenoxy)hexyl)azanediyl)bis(hexane-1,2,3,4,5-pentaol) Hydrochloride]
- DTNB reduction rate [1]: 211.3 M⁻¹ s⁻¹

- Reduction Without Esterase [2]: No
- Reduction With Esterase [2]: Yes
SMILES: CC(=O)SCc1cccc(OCCN(C[C@H](O)[C@@H](O)[C@H](O)[C@H](O)CO)C[C@H](O)[C@@H](O)[C@H](O)[C@H](O)CO)c1.Cl [Compound 17, S-3-(2-(bis((2S,3R,4R,5R)-2,3,4,5,6-pentahydroxyhexyl)amino)ethoxy)benzyl Ethanethioate Hydrochloride]

- MUC5B reduction [3]: reduce MUC5B
- Reduction Without Esterase [2]: No
- Reduction With Esterase [2]: Yes
- reduction of disulfide bonds by pro-drug alone ([2]; absence of activating esterase): does not reduce disulfide
SMILES: CC(=O)SCc1ccc(OCCCCCCN(C[C@H](O)[C@@H](O)[C@H](O)[C@H](O)CO)C[C@H](O)[C@@H](O)[C@H](O)[C@H](O)CO)cc1.Cl [Compound 46, S-4-((6-(bis((2S,3R,4R,5R)-2,3,4,5,6-pentahydroxyhexyl)amino)hexyl)oxy)benzyl Ethanethioate Hydrochloride]
- reaction rates on addition of activating enzyme ([2]; presence of activating esterase): concentration dependent increase in reaction rates
